Earlier results as cited in patent US20230172901A1, “COMPOSITIONS AND METHODS FOR THE PROPHYLAXIS AND TREATMENT OF FIBROTIC AND INFLAMMATORY CONDITIONS” (GRETALS AUSTRALIA PTY LTD, priority 2020, published 2023).

System: IPF patients
Conditions: prior art, cited from earlier work

Row | SMILES | quality of life / respiratory parameters (IPF patients) | survival (IPF patients) | progression-free survival (IPF patients) | side effects
1 | COC(=O)c1ccc2c(c1)NC(=O)/C2=C(\Nc1ccc(N(C)C(=O)CN2CCN(C)CC2)cc1)c1ccccc1 [Nintendanib] | can improve quality of life | do not improve survival |  | 
2 | Cc1ccc(=O)n(-c2ccccc2)c1 [Perfenidone] |  |  | improve progression-free survival | provokes a range of side effects in the skin, gastrointestinal tract, liver, and nervous system
